Reference: paper PMC6832265 (Molecules, 2019)

Biological target: T1, Tdp1 (Homo sapiens, UniProt Q9NUW8)
T1 construct: made in house; host or cells: Escherichia coli
Assay: Real-time detection of Tdp1 activity (5'-FAM/3'-BHQ1 oligonucleotide biosensor)
Assay type: biochemical
Conditions: 1.5 nM Tdp1, 50 nM oligonucleotide substrate, 26 °C
From the text: We first studied the inhibition potency of our compounds to Tdp1 by using a real-time oligonucleotide biosensor assay that we have previously developed. The assay was based on the ability of Tdp1 to remove the fluorescence quencher from the 3’-end of DNA. The substrate is a 16-mer single-stranded oligonucleotide containing both a 5’-FAM fluorophore and a 3’-BHQ1 quencher.
A fluorophore quencher-coupled DNA-biosensor for real-time measurement of Tdp1 cleavage activity was recently designed in our laboratory. The biosensor is a 16-mer single-stranded oligonucleotide containing both a 5’-FAM fluorophore donor and a quenching 3’-BHQ1 moiety.
Recombinant protein Tdp1 was expressed in EsCherichia coli (pET 16B plasmid containing Tdp1 cDNA provided by Dr. K.W. Caldecott, University of Sussex, United Kingdom) and isolated as described. The reaction mixture in a final volume 200 μL contained Tdp1 reaction buffer (50 mM Tris-HCl, 50 mM NaCl, 7 mM β-mercaptoethanol), 50 nM oligonucleotide substrate, and varied concentrations of potential inhibitor. Purified Tdp1 was added in a final concentration of 1.5 nM.
The reaction mixtures were incubated at a constant temperature of 26 °C in a POLARstar OPTIMA fluorimeter, BMG LABTECH, GmbH, to measure fluorescence intensity every minute (Ex485/Em520 nm). Tdp1 inhibition was calculated by comparing the rate of increase in fluorescence of the biosensor in the presence of the compound to that of DMSO (1.5%) control wells. The measurements were carried out in at least two independent experiments. IC50 values were determined using a six-point concentration response curve. The data were imported into the MARS Data Analysis 2.0 program (BMG LABTECH) and the slope during the linear phase (data from 0 to 7 min) was calculated.

T1 sequence (Q9NUW8 whole entry): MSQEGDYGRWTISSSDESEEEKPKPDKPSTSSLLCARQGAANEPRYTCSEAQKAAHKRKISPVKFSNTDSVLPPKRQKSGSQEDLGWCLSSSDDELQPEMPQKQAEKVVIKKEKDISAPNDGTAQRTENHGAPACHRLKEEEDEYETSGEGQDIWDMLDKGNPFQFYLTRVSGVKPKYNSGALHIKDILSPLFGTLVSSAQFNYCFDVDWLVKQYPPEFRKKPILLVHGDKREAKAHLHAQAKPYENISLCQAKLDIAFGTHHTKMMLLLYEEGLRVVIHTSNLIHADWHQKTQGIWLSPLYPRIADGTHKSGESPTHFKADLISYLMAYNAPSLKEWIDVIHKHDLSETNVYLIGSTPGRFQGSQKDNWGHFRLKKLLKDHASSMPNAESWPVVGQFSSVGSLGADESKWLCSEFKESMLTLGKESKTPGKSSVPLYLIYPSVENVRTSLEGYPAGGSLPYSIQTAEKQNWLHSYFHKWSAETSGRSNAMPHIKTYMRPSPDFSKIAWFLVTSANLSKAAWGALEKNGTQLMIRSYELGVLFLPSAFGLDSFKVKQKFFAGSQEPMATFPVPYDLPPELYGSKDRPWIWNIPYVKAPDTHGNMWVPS

| IC50 | Structure (SMILES) |
| --- | --- |
| 353 ± 17 nM | CC(=O)C1=C(O)C=C2Oc3c(-c4csc(N/N=C/c5cccnc5)n4)c(O)c(C)c(O)c3[C@@]2(C)C1=O [(+)-16c, 3-[(1E)-(2-{4-[(1R)-12-Acetyl-3,5,11-trihydroxy-1,4-dimethyl-13-oxo-8-oxatricyclo[7.4.0.0^2,7]trideca-2(7),3,5,9,11-pentaen-6-yl]-1,3-thiazol-2-yl}hydrazin-1-ylidene)methyl]pyridin-1-ium bromide] |
| 91 ± 7 nM | CC(=O)C1=C(O)C=C2Oc3c(-c4csc(N/N=C/c5ccc(C)s5)n4)c(O)c(C)c(O)c3[C@@]2(C)C1=O [(+)-16e, (2R)-4-Acetyl-5,11,13-trihydroxy-2,12-dimethyl-10-{2-[(E)-2-[(5-methylthiophen-2-yl)methylidene]hydrazin-1-yl]-1,3-thiazol-4-yl}-8-oxatricyclo[7.4.0.0^2,7]trideca-1(9),4,6,10,12-pentaen-3-one] |
| 52 ± 18 nM | CC(=O)C1=C(O)C=C2Oc3c(-c4csc(N/N=C/c5cccs5)n4)c(O)c(C)c(O)c3[C@@]2(C)C1=O [(+)-16g, (2R)-4-Acetyl-5,11,13-trihydroxy-2,12-dimethyl-10-{2-[(E)-2-[(thiophen-2-yl)methylidene] hydrazin-1-yl]-1,3-thiazol-4-yl}-8-oxatricyclo[7.4.0.0^2,7]trideca-1(9),4,6,10,12-pentaen-3-one] |
| 72 ± 3 nM | CC(=O)C1=C(O)C=C2Oc3c(-c4csc(N/N=C/c5sccc5C)n4)c(O)c(C)c(O)c3[C@@]2(C)C1=O [(+)-16i, (2R)-4-Acetyl-5,11,13-trihydroxy-2,12-dimethyl-10-{2-[(E)-2-[(3-methylthiophen-2-yl)methylidene]hydrazin-1-yl]-1,3-thiazol-4-yl}-8-oxatricyclo[7.4.0.0^2,7]trideca-1(9),4,6,10,12-pentaen-3-one] |
| 1480 ± 265 nM | CC(=O)C1=C(O)C=C2Oc3c(-c4csc(N/N=C/c5ccccn5)n4)c(O)c(C)c(O)c3[C@]2(C)C1=O [(−)-16b, 2-[(1E)-(2-{4-[(1S)-12-Acetyl-3,5,11-trihydroxy-1,4-dimethyl-13-oxo-8-oxatricyclo [7.4.0.0^2,7]trideca-2(7),3,5,9,11-pentaen-6-yl]-1,3-thiazol-2-yl}hydrazin-1-ylidene)methyl]pyridin-1-ium bromide] |
| 142 ± 4 nM | CC(=O)C1=C(O)C=C2Oc3c(-c4csc(N/N=C/c5ccc([N+](=O)[O-])s5)n4)c(O)c(C)c(O)c3[C@]2(C)C1=O [(−)-16d, (2S)-4-Acetyl-5,11,13-trihydroxy-2,12-dimethyl-10-{2-[(E)-2-[(5-nitrothiophen-2-yl)methylidene]hydrazin-1-yl]-1,3-thiazol-4-yl}-8-oxatricyclo[7.4.0.0^2,7]trideca-1(9),4,6,10,12-pentaen-3-one] |
| 53 ± 3 nM | CC(=O)C1=C(O)C=C2Oc3c(-c4csc(N/N=C/c5ccc(-c6cccc(Cl)c6)o5)n4)c(O)c(C)c(O)c3[C@]2(C)C1=O [(−)-16r, (2S)-4-Acetyl-10-{2-[(E)-2-{[5-(3-chlorophenyl)furan-2-yl]methylidene}hydrazin-1-yl]-1,3-thiazol-4-yl}-5,11,13-trihydroxy-2,12-dimethyl-8-oxatricyclo[7.4.0.0^2,7]trideca-1(9),4,6,10,12-pentaen-3-one] |
| 48 ± 2 nM | COc1ccc(/C=N/Nc2nc(-c3c(O)c(C)c(O)c4c3OC3=CC(O)=C(C(C)=O)C(=O)[C@]34C)cs2)cc1COc1ccc(Cl)c(C)c1 [(−)-17h, (2S)-4-Acetyl-10-{2-[(E)-2-({3-[(4-chloro-3-methylphenoxy)methyl]-4-methoxyphenyl}methylidene)hydrazin-1-yl]-1,3-thiazol-4-yl}-5,11,13-trihydroxy-2,12-dimethyl-8-oxatricyclo[7.4.0.0^2,7]trideca-1(9),4,6,10,12-pentaen-3-one] |

Second part, the compound before the results:

| Structure (SMILES) | IC50 |
| --- | --- |
| CC(=O)C1=C(O)C=C2Oc3c(-c4csc(N/N=C/c5cc(Br)cs5)n4)c(O)c(C)c(O)c3[C@@]2(C)C1=O [(+)-16h, (2R)-4-Acetyl-5,11,13-trihydroxy-2,12-dimethyl-10-{2-[(E)-2-[(4-bromothiophen-2-yl)methylidene]hydrazin-1-yl]-1,3-thiazol-4-yl}-8-oxatricyclo[7.4.0.0^2,7]trideca-1(9),4,6,10,12-pentaen-3-one] | 70 ± 18 nM |
| CC(=O)C1=C(O)C=C2Oc3c(-c4csc(N/N=C/c5ccoc5)n4)c(O)c(C)c(O)c3[C@@]2(C)C1=O [(+)-16l, (2R)-4-Acetyl-5,11,13-trihydroxy-2,12-dimethyl-10-{2-[(E)-2-[(furan-3-yl)methylidene] hydrazin-1-yl]-1,3-thiazol-4-yl}-8-oxatricyclo[7.4.0.0^2,7]trideca-1(9),4,6,10,12-pentaen-3-one] | 77 ± 6 nM |
| CC(=O)C1=C(O)C=C2Oc3c(-c4csc(N/N=C/c5ccc[nH]5)n4)c(O)c(C)c(O)c3[C@@]2(C)C1=O [(+)-16m, (2R)-4-Acetyl-5,11,13-trihydroxy-2,12-dimethyl-10-{2-[(E)-2-[(1H-pyrrol-2-yl)methylidene] hydrazin-1-yl]-1,3-thiazol-4-yl}-8-oxatricyclo[7.4.0.0^2,7]trideca-1(9),4,6,10,12-pentaen-3-one] | 188 ± 3 nM |
| CC(=O)C1=C(O)C=C2Oc3c(-c4csc(N/N=C/c5ccncc5)n4)c(O)c(C)c(O)c3[C@]2(C)C1=O [(−)-16a, 4-[(1E)-(2-{4-[(1S)-12-Acetyl-3,5,11-trihydroxy-1,4-dimethyl-13-oxo-8-oxatricyclo[7.4.0.0^2,7]trideca-2(7),3,5,9,11-pentaen-6-yl]-1,3-thiazol-2-yl}hydrazin-1-ylidene)methyl]pyridin-1-ium bromide] | 139 ± 38 nM |
| CC(=O)C1=C(O)C=C2Oc3c(-c4csc(N/N=C/c5ccc(C)s5)n4)c(O)c(C)c(O)c3[C@]2(C)C1=O [(−)-16e, (2S)-4-Acetyl-5,11,13-trihydroxy-2,12-dimethyl-10-{2-[(E)-2-[(5-methylthiophen-2-yl)methylidene]hydrazin-1-yl]-1,3-thiazol-4-yl}-8-oxatricyclo[7.4.0.0^2,7]trideca-1(9),4,6,10,12-pentaen-3-one] | 54 ± 25 nM |
| CC(=O)C1=C(O)C=C2Oc3c(-c4csc(N/N=C/c5sccc5C)n4)c(O)c(C)c(O)c3[C@]2(C)C1=O [(−)-16i, (2S)-4-Acetyl-5,11,13-trihydroxy-2,12-dimethyl-10-{2-[(E)-2-[(3-methylthiophen-2-yl)methylidene]hydrazin-1-yl]-1,3-thiazol-4-yl}-8-oxatricyclo[7.4.0.0^2,7]trideca-1(9),4,6,10,12-pentaen-3-one] | 121 ± 25 nM |
| CC(=O)C1=C(O)C=C2Oc3c(-c4csc(N/N=C/c5cccn5C)n4)c(O)c(C)c(O)c3[C@]2(C)C1=O [(−)-16n, (2S)-4-Acetyl-5,11,13-trihydroxy-2,12-dimethyl-10-{2-[(E)-2-[(1-methyl-pyrrol-2-yl)methylidene]hydrazin-1-yl]-1,3-thiazol-4-yl}-8-oxatricyclo[7.4.0.0^2,7]trideca-1(9),4,6,10,12-pentaen-3-one] | 29 ± 9 nM |
| CC(=O)C1=C(O)C=C2Oc3c(-c4csc(N/N=C/c5c[nH]c6ccccc56)n4)c(O)c(C)c(O)c3[C@]2(C)C1=O [(−)-16p, (2S)-4-Acetyl-5,11,13-trihydroxy-2,12-dimethyl-10-{2-[(E)-2-[(1H-indole-3-yl)methylidene] hydrazin-1-yl]-1,3-thiazol-4-yl}-8-oxatricyclo[7.4.0.0^2,7]trideca-1(9),4,6,10,12-pentaen-3-one] | 57 ± 1 nM |
| COc1ccc(/C=N/Nc2nc(-c3c(O)c(C)c(O)c4c3OC3=CC(O)=C(C(C)=O)C(=O)[C@]34C)cs2)cc1COc1ccc(F)cc1 [(−)-17a, (2S)-4-Acetyl-10-{2-[(E)-2-({3-[(4-fluorophenoxy)methyl]-4-methoxyphenyl}methylidene)hydrazin-1-yl]-1,3-thiazol-4-yl}-5,11,13-trihydroxy-2,12-dimethyl-8-oxatricyclo[7.4.0.0^2,7]trideca-1(9),4,6,10,12-pentaen-3-one] | 54 ± 3 nM |
| COc1ccc(/C=N/Nc2nc(-c3c(O)c(C)c(O)c4c3OC3=CC(O)=C(C(C)=O)C(=O)[C@]34C)cs2)cc1COc1cccc(F)c1 [(−)-17b, (2S)-4-Acetyl-10-{2-[(E)-2-({3-[(3-fluorophenoxy)methyl]-4-methoxyphenyl}methylidene)hydrazin-1-yl]-1,3-thiazol-4-yl}-5,11,13-trihydroxy-2,12-dimethyl-8-oxatricyclo[7.4.0.0^2,7]trideca-1(9),4,6,10,12-pentaen-3-one] | 78 ± 3 nM |
| COc1ccc(/C=N/Nc2nc(-c3c(O)c(C)c(O)c4c3OC3=CC(O)=C(C(C)=O)C(=O)[C@]34C)cs2)cc1CSc1cc(C)ccc1C(C)(C)C [(−)-17g, (2S)-4-Acetyl-10-{2-[(E)-2-[(3-{[(2-tert-butyl-5-methylphenyl)sulfanyl]methyl}-4-methoxyphenyl)methylidene]hydrazin-1-yl]-1,3-thiazol-4-yl}-5,11,13-trihydroxy-2,12-dimethyl-8-oxatricyclo[7.4.0.0^2,7]trideca-1(9),4,6,10,12-pentaen-3-one] | 94 ± 20 nM |
